# Assay results: publication PMC11356900, “Synthesis, Structural Properties and Biological Activities of Novel Hydrazones of 2-, 3-, 4-Iodobenzoic Acid” (Molecules, 2024)
# What was measured:
# Assay in all cases: MTT cytotoxicity assay
# Format in all cases: cell-based
# A549 cell line = tested on: A549 cell line
# Procedure: (§1) Among all the newly synthesized compounds, four compounds designated as: 14, 20, 21 and 27 were selected for further testing of their cytotoxic properties at the doses of 10, 25, 50, 75 and 100 µM. The cytotoxic properties of the above compounds were tested on the cancer cell lines, i.e., A549 (ECACC 86012804) (non-small-cell lung cancer), T47D (ECACC 85102201) (breast cancer), HeLa (ATCC® CCL-2™) (cervical cancer) and normal line L929 (NCTC clone 929, ATCC® CCL-1™) (mouse fibroblasts) using the MTT test for 24- and 48 h cultures.
# (§2) A549 (ECACC 86012804) (non-small-cell lung cancer) and T47D (ECACC 85102201) (breast cancer) were obtained from ECACC and propagated in Dulbecco’s Minimal Essential Medium, supplemented with 2 mM of glutamine, antibiotics ([…] streptomycin, 1% of 100 U/L penicillin) and 10% Fetal Bovine Serum. HeLa (ATCC® CCL-2™) (cervical cancer) and L929 (NCTC clone 929, ATCC® CCL-1™) (mouse fibroblasts) cell lines were obtained from ATCC and propagated in the Eagle Minimal Essential Medium supplemented with antibiotics ([…] streptomycin, 1% of 100 U/L penicillin) and with 10% and 5% FBS, respectively. The cell line was routinely grown in 75 cm^2 tissue culture flasks and kept in an incubator (humidified atmosphere of 5% CO2 at 37 °C). All examined cell lines were tested against mycoplasma contamination with microbiological assays.
# (§3) The cell viability of tested compounds (14, 20, 21 and 27) was assessed by the MTT assay. In brief, the exponentially growing cells were plated in 100 μL/well in 96-well plates. After 24 h culturing, the cells were treated with different concentrations of compounds (range 10–100 μM). After 24 and 48 h of incubation, 10 μL of 5 mg/mL MTT was added to each well and the plates were incubated at 37 °C for additional 4 h. The medium was subsequently removed, the purple-colored precipitates of formazan were dissolved in 100 μL of DMSO. The color absorbance was recorded at 570 nm using a BioTek model EPOCH ELISA plate reader. All experiments were performed in triplicate. The absorbance values were in the range of linearity of the Lambert–Beer law.
# HeLa cell line = tested on: HeLa cell line
# Procedure: as §1, §2, §3
# T47D cell line = tested on: T47D cell line
# Procedure: as §1, §2, §3
smiles,measurement,setting,value
"O=C(N/N=C/c1cc(I)cc(I)c1O)c1ccccc1I [Compound 14, N-[(3,5-diiodo-2-hydroxyphenyl)methylidene]-2-iodobenzohydrazide]",cell proliferation,"A549 cell line; A549, 24h, 10 µM, Repeat No 1",86%
same,cell proliferation,"A549 cell line; A549, 24h, 10 µM, Repeat No 2",77%
same,cell proliferation,"A549 cell line; A549, 24h, 25 µM, Repeat No 1",103%
same,cell proliferation,"A549 cell line; A549, 24h, 25 µM, Repeat No 2",98%
same,cell proliferation,"A549 cell line; A549, 24h, 50 µM, Repeat No 1",89%
same,cell proliferation,"A549 cell line; A549, 24h, 50 µM, Repeat No 2",84%
same,cell proliferation,"A549 cell line; A549, 24h, 75 µM, Repeat No 1",87%
same,cell proliferation,"A549 cell line; A549, 24h, 75 µM, Repeat No 2",89%
same,cell proliferation,"A549 cell line; A549, 24h, 100 µM, Repeat No 1",82%
same,cell proliferation,"A549 cell line; A549, 24h, 100 µM, Repeat No 2",74%
same,cell proliferation,"A549 cell line; A549, 48h, 10 µM, Repeat No 1",93%
same,cell proliferation,"A549 cell line; A549, 48h, 10 µM, Repeat No 2",79%
same,cell proliferation,"A549 cell line; A549, 48h, 25 µM, Repeat No 1",87%
same,cell proliferation,"A549 cell line; A549, 48h, 25 µM, Repeat No 2",91%
same,cell proliferation,"A549 cell line; A549, 48h, 50 µM, Repeat No 1",91%
same,cell proliferation,"A549 cell line; A549, 48h, 50 µM, Repeat No 2",83%
same,cell proliferation,"A549 cell line; A549, 48h, 75 µM, Repeat No 1",89%
same,cell proliferation,"A549 cell line; A549, 48h, 75 µM, Repeat No 2",89%
same,cell proliferation,"A549 cell line; A549, 48h, 100 µM, Repeat No 1",90%
same,cell proliferation,"A549 cell line; A549, 48h, 100 µM, Repeat No 2",96%
same,cell proliferation,"HeLa cell line; 24h, 10 µM, Repeat No 1",88%
same,cell proliferation,"HeLa cell line; 24h, 10 µM, Repeat No 2",81%
same,cell proliferation,"HeLa cell line; 24h, 25 µM, Repeat No 1",93%
same,cell proliferation,"HeLa cell line; 24h, 25 µM, Repeat No 2",91%
same,cell proliferation,"HeLa cell line; 24h, 50 µM, Repeat No 1",88%
same,cell proliferation,"HeLa cell line; 24h, 50 µM, Repeat No 2",82%
same,cell proliferation,"HeLa cell line; 24h, 75 µM, Repeat No 1",98%
same,cell proliferation,"HeLa cell line; 24h, 75 µM, Repeat No 2",89%
same,cell proliferation,"HeLa cell line; 24h, 100 µM, Repeat No 1",82%
same,cell proliferation,"HeLa cell line; 24h, 100 µM, Repeat No 2",89%
same,cell proliferation,"HeLa cell line; 48h, 10 µM, Repeat No 1",76%
same,cell proliferation,"HeLa cell line; 48h, 10 µM, Repeat No 2",79%
same,cell proliferation,"HeLa cell line; 48h, 25 µM, Repeat No 1",82%
same,cell proliferation,"HeLa cell line; 48h, 25 µM, Repeat No 2",89%
same,cell proliferation,"HeLa cell line; 48h, 50 µM, Repeat No 1",85%
same,cell proliferation,"HeLa cell line; 48h, 50 µM, Repeat No 2",84%
same,cell proliferation,"HeLa cell line; 48h, 75 µM, Repeat No 1",77%
same,cell proliferation,"HeLa cell line; 48h, 75 µM, Repeat No 2",71%
same,cell proliferation,"HeLa cell line; 48h, 100 µM, Repeat No 1",81%
same,cell proliferation,"HeLa cell line; 48h, 100 µM, Repeat No 2",93%
same,cell proliferation,"T47D cell line; 24h, 10 µM, Repeat No 1",86%
same,cell proliferation,"T47D cell line; 24h, 10 µM, Repeat No 2",89%
same,cell proliferation,"T47D cell line; 24h, 25 µM, Repeat No 1",71%
same,cell proliferation,"T47D cell line; 24h, 25 µM, Repeat No 2",74%
same,cell proliferation,"T47D cell line; 24h, 50 µM, Repeat No 1",79%
same,cell proliferation,"T47D cell line; 24h, 50 µM, Repeat No 2",75%
same,cell proliferation,"T47D cell line; 24h, 75 µM, Repeat No 1",87%
same,cell proliferation,"T47D cell line; 24h, 75 µM, Repeat No 2",80%
same,cell proliferation,"T47D cell line; 24h, 100 µM, Repeat No 1",79%
same,cell proliferation,"T47D cell line; 24h, 100 µM, Repeat No 2",73%
same,cell proliferation,"T47D cell line; 48h, 10 µM, Repeat No 1",71%
same,cell proliferation,"T47D cell line; 48h, 10 µM, Repeat No 2",79%
same,cell proliferation,"T47D cell line; 48h, 25 µM, Repeat No 1",81%
same,cell proliferation,"T47D cell line; 48h, 25 µM, Repeat No 2",79%
same,cell proliferation,"T47D cell line; 48h, 50 µM, Repeat No 1",81%
same,cell proliferation,"T47D cell line; 48h, 50 µM, Repeat No 2",79%
same,cell proliferation,"T47D cell line; 48h, 75 µM, Repeat No 1",72%
same,cell proliferation,"T47D cell line; 48h, 75 µM, Repeat No 2",69%
same,cell proliferation,"T47D cell line; 48h, 100 µM, Repeat No 1",74%
same,cell proliferation,"T47D cell line; 48h, 100 µM, Repeat No 2",69%
